Reference: patent publication US20060083830A1, “Polylysine-containing food additive and acidic adjuvant” (priority 2004, published 2006)
Values joined by “and” are separate entries in the source; they are usually repeats but may differ in a detail not shown here. Equal entries are not always repeated.

Columns and labels:
Listeria monocytogenes [1] = assay: Listeria monocytogenes on boiled dumpling sheets with ε-polylysine in the dough, vacuum sealed, 10° C., CFU determination; details: for Log Reduction: vs control Group A
Listeria monocytogenes [2] = assay: L. monocytogenes on cooked ground turkey balls blended with ε-polylysine, with or without 5 second acidic adjuvant spray, incubated at 8° C., CFU determination; format: cell-based; details: for Log Reduction: vs control
Method: Four groups of 20 g ground uncooked turkey balls were prepared, with 54 balls prepared per group. […] Groups B-D were blended with varying amounts of ε-polylysine (“ε-PL”). Final concentrations of ε-polylysine within the turkey balls were:
After preparation, all meatballs were placed on baking sheets and baked in a conventional oven at 350° F. for 20 minutes. After baking, the meatballs were packaged separately and stored at 4° C.
The mixture was further diluted 1:5000 times with sterile saline to produce a suspension for use. […] 20 microliters of the Listeria monocytogenes suspension was inoculated onto the exterior of each turkey ball. The turkey balls were incubated at room temperature for 30 min post-inoculation to allow bacteria to attach.
Each group of meatballs (54 per group) was divided into two groups of 27 meatballs and labeled as control or treated meatballs as follows: AC, AT, BC, BT, CC, CT, DC and DT, respectively. Control meatballs labeled AC, BC, CC, and DC were sprayed for 5 seconds with sterile water. Treated meatballs labeled AT, BT, CT and DT were sprayed for 5 seconds with the acidic adjuvant prepared in Example 4 above (Safe2O®brandRTE 01, Mionix Corporation, Rocklin, Calif.) diluted 2 parts water to 1 part solution, having a final pH of about 1.5. After the spray treatment, the meatballs were packaged individually, vacuum sealed and incubated at 8° C.
The microbiological assay was performed after 24 hours, 1 week, 2 weeks, 3 weeks, and 4 weeks. After each designated time period had passed, three bags from each group of meat balls were unpacked, transferred to a stomacher bag along with 20 ml of sterile 0.1% peptone water. Each meatball was hand crushed and stomached at high speed for 2 minutes.

[3] = rats, two generations; Neda et al., 1999; cited from earlier work

For “poly(imino(2-amino-1-oxo-1,6-hexanediyl)) [ε-PL]”, the CFU/dumpling (Listeria monocytogenes [1]; 1000 ppm ε-PL, after 1 hour) was 3.80E+02 CFU/dumpling and 4.00E+02 CFU/dumpling and 2.00E+02 CFU/dumpling, the “average Log Value” (Listeria monocytogenes [1]; 1000 ppm ε-PL, after 1 hour) was 2.15 and the “average of CFU/dumpling” value (Listeria monocytogenes [1]; 1000 ppm ε-PL, after 1 hour) was 3.27E+02 CFU/dumpling. The “Log Reduction” value (Listeria monocytogenes [1]; 1000 ppm ε-PL, after 1 hour) was 0.89, the “average Log Value” (Listeria monocytogenes [1]; 1000 ppm ε-PL, after 24 hours) was 2.32 and the “average of CFU/dumpling” value (Listeria monocytogenes [1]; 1000 ppm ε-PL, after 24 hours) was 2.10E+02 CFU/dumpling. The “Log Reduction” value (Listeria monocytogenes [1]; 1000 ppm ε-PL, after 24 hours) was 2.42, the post-lethality effect (Listeria monocytogenes [1]; 2000 ppm and above, limits of detection 10 CFU/piece) was “killed the Listeria down to the limits of detection” and the CFU/dumpling (Listeria monocytogenes [1]; 2000 ppm ε-PL, after 1 hour) was less than 1.00E+01 CFU/dumpling. The “average Log Value” (Listeria monocytogenes [1]; 2000 ppm ε-PL, after 1 hour) was less than 1.00, the “average of CFU/dumpling” value (Listeria monocytogenes [1]; 2000 ppm ε-PL, after 1 hour) was less than 1.00E+01 CFU/dumpling and the “Log Reduction” value (Listeria monocytogenes [1]; 2000 ppm ε-PL, after 1 hour) was greater than 2.41. For the same substance, the CFU/dumpling (Listeria monocytogenes [1]; 2000 ppm ε-PL, after 24 hours) was less than 1.00E+01 CFU/dumpling, the “average Log Value” (Listeria monocytogenes [1]; 2000 ppm ε-PL, after 24 hours) was less than 1.00 and the “average of CFU/dumpling” value (Listeria monocytogenes [1]; 2000 ppm ε-PL, after 24 hours) was less than 1.00E+01 CFU/dumpling. The “Log Reduction” value (Listeria monocytogenes [1]; 2000 ppm ε-PL, after 24 hours) was greater than 3.74, the CFU/dumpling (Listeria monocytogenes [1]; 3000 ppm ε-PL, after 1 hour) was less than 1.00E+01 CFU/dumpling and the “average Log Value” (Listeria monocytogenes [1]; 3000 ppm ε-PL, after 1 hour) was less than 1.00. For the same substance, the “average of CFU/dumpling” value (Listeria monocytogenes [1]; 3000 ppm ε-PL, after 1 hour) was less than 1.00E+01 CFU/dumpling, the “Log Reduction” value (Listeria monocytogenes [1]; 3000 ppm ε-PL, after 1 hour) was greater than 2.41 and the CFU/dumpling (Listeria monocytogenes [1]; 3000 ppm ε-PL, after 24 hours) was less than 1.00E+01 CFU/dumpling. The “average Log Value” (Listeria monocytogenes [1]; 3000 ppm ε-PL, after 24 hours) was less than 1.00, the “average of CFU/dumpling” value (Listeria monocytogenes [1]; 3000 ppm ε-PL, after 24 hours) was less than 1.00E+01 CFU/dumpling and the “Log Reduction” value (Listeria monocytogenes [1]; 3000 ppm ε-PL, after 24 hours) was greater than 3.74. The “replication of Listeria monocytogenes” value (Listeria monocytogenes [1]; final concentration of 1000-3000 ppm in flour portion of dumpling) was “completely suppressed replication of Listeria monocytogenes”, the “average Log Value” (Listeria monocytogenes [2]; 1000 ppm ε-PL, after 1 week) was 5.38 and the “average of CFU/g” value (Listeria monocytogenes [2]; 1000 ppm ε-PL, after 1 week) was 2.41E+05 CFU/g. For the same substance, the “Log Reduction” value (Listeria monocytogenes [2]; 1000 ppm ε-PL, after 1 week) was 2.99, the “average Log Value” (Listeria monocytogenes [2]; 1000 ppm ε-PL, after 2 weeks) was 4.76 and the “average of CFU/g” value (Listeria monocytogenes [2]; 1000 ppm ε-PL, after 2 weeks) was 5.72E+04 CFU/g. The “Log Reduction” value (Listeria monocytogenes [2]; 1000 ppm ε-PL, after 2 weeks) was 4.09, the “average Log Value” (Listeria monocytogenes [2]; 1000 ppm ε-PL, after 3 weeks) was 5.94 and the “average of CFU/g” value (Listeria monocytogenes [2]; 1000 ppm ε-PL, after 3 weeks) was 8.75E+05 CFU/g. The “average Log Value” (Listeria monocytogenes [2]; 1000 ppm ε-PL, after 4 weeks) was 6.67, the “average of CFU/g” value (Listeria monocytogenes [2]; 1000 ppm ε-PL, after 4 weeks) was 4.64E+06 CFU/g and the “Log Reduction” value (Listeria monocytogenes [2]; 1000 ppm ε-PL, after 4 weeks) was 1.91. The “average Log Value” (Listeria monocytogenes [2]; 1000 ppm ε-PL, after 24 hours) was 2.22, the “average of CFU/g” value (Listeria monocytogenes [2]; 1000 ppm ε-PL, after 24 hours) was 1.67E+02 CFU/g and the “Log Reduction” value (Listeria monocytogenes [2]; 1000 ppm ε-PL, after 24 hours) was 1.48. For the same substance, the “average Log Value” (Listeria monocytogenes [2]; 2000 ppm ε-PL, after 1 week) was 1.40, the “average of CFU/g” value (Listeria monocytogenes [2]; 2000 ppm ε-PL, after 1 week) was 2.53E+01 CFU/g and the “Log Reduction” value (Listeria monocytogenes [2]; 2000 ppm ε-PL, after 1 week) was 6.97. The “average Log Value” (Listeria monocytogenes [2]; 2000 ppm ε-PL, after 2 weeks) was 4.27, the “average of CFU/g” value (Listeria monocytogenes [2]; 2000 ppm ε-PL, after 2 weeks) was 1.88E+04 CFU/g and the “Log Reduction” value (Listeria monocytogenes [2]; 2000 ppm ε-PL, after 2 weeks) was 4.57. For the same substance, the “average Log Value” (Listeria monocytogenes [2]; 2000 ppm ε-PL, after 3 weeks) was 2.95, the “average of CFU/g” value (Listeria monocytogenes [2]; 2000 ppm ε-PL, after 3 weeks) was 8.96E+02 CFU/g and the “Log Reduction” value (Listeria monocytogenes [2]; 2000 ppm ε-PL, after 3 weeks) was 5.33. For the same substance, the “average Log Value” (Listeria monocytogenes [2]; 2000 ppm ε-PL, after 4 weeks) was 3.86, the “average of CFU/g” value (Listeria monocytogenes [2]; 2000 ppm ε-PL, after 4 weeks) was 7.18E+03 CFU/g and the “Log Reduction” value (Listeria monocytogenes [2]; 2000 ppm ε-PL, after 4 weeks) was 4.72. The “average Log Value” (Listeria monocytogenes [2]; 2000 ppm ε-PL, after 24 hours) was 1.36, the “average of CFU/g” value (Listeria monocytogenes [2]; 2000 ppm ε-PL, after 24 hours) was 2.27E+01 CFU/g and the “Log Reduction” value (Listeria monocytogenes [2]; 2000 ppm ε-PL, after 24 hours) was 2.35. For the same substance, the “average Log Value” (Listeria monocytogenes [2]; 3000 ppm ε-PL, after 1 week) was less than 0.94, the “average of CFU/g” value (Listeria monocytogenes [2]; 3000 ppm ε-PL, after 1 week) was less than 8.67E+00 CFU/g and the “Log Reduction” value (Listeria monocytogenes [2]; 3000 ppm ε-PL, after 1 week) was greater than 7.43. The “average Log Value” (Listeria monocytogenes [2]; 3000 ppm ε-PL, after 2 weeks) was less than 2.21, the “average of CFU/g” value (Listeria monocytogenes [2]; 3000 ppm ε-PL, after 2 weeks) was less than 1.61E+02 CFU/g and the “Log Reduction” value (Listeria monocytogenes [2]; 3000 ppm ε-PL, after 2 weeks) was less than 6.64. The CFU/g (Listeria monocytogenes [2]; 3000 ppm ε-PL, after 3 weeks) was less than 2.00E+00 CFU/g, the “average Log Value” (Listeria monocytogenes [2]; 3000 ppm ε-PL, after 3 weeks) was less than 0.30 and the “average of CFU/g” value (Listeria monocytogenes [2]; 3000 ppm ε-PL, after 3 weeks) was less than 2.00E+00 CFU/g. The “Log Reduction” value (Listeria monocytogenes [2]; 3000 ppm ε-PL, after 3 weeks) was less than 7.98, the “average Log Value” (Listeria monocytogenes [2]; 3000 ppm ε-PL, after 4 weeks) was greater than 3.56 and the “average of CFU/g” value (Listeria monocytogenes [2]; 3000 ppm ε-PL, after 4 weeks) was greater than 3.61E+03 CFU/g. The “Log Reduction” value (Listeria monocytogenes [2]; 3000 ppm ε-PL, after 4 weeks) was less than 5.02, the CFU/g (Listeria monocytogenes [2]; 3000 ppm ε-PL, after 24 hours) was 1.40E+01 CFU/g and 1.60E+01 CFU/g and 1.00E+01 CFU/g and the “average Log Value” (Listeria monocytogenes [2]; 3000 ppm ε-PL, after 24 hours) was 1.12. The “average of CFU/g” value (Listeria monocytogenes [2]; 3000 ppm ε-PL, after 24 hours) was 1.33E+01 CFU/g, the “Log Reduction” value (Listeria monocytogenes [2]; 3000 ppm ε-PL, after 24 hours) was 2.58 and the “controlling the outgrowth of Listeria, ε-PL alone vs secondary acidic adjuvant spray for 5 sec” value (Listeria monocytogenes [2]; Tables 2.1-2.5) was “more effective in controlling the outgrowth of Listeria than the effect of a secondary spray application of the acidic adjuvant”. The “safety as a food additive” value [3] was “no adverse reproductive toxological effects”.
